Laboratory results reported in patent US8586051B2, “Glycolipids and analogues thereof as antigens for NKT cells” (The Rockefeller University, priority 2004, dated 2013).

What was measured:
[1] = system: Vα24i human NKT cell line; experiment: In vitro cytokine secretion assay using human NKT cell lines with CD14+ dendritic cells; assay type: cell-based
Procedure: (§1) Human NKT cell lines, expressing the Vα24i T cell receptor as well as CD161, were generated as follows: Anti-CD161 monoclonal antibodies, and anti-CD14 monoclonal antibodies, each coupled to magnetic beads (Miltenyi biotec, Auburn, Calif.), were used sequentially to isolate CD161^+ cells and CD14^+ cells from leukopaks. Immature dendritic cells were generated from the CD14^+ cells after a two-day incubation in the presence of 300 U/ml GM-CSF (R&D systems, Minneapolis, Minn.) and 100 U/ml IL-4 (R&D systems, Minneapolis, Minn.). Following irradiation with 2000 rads, the immature dendritic cells were co-cultured with syngeneic CD161′ cells in the presence of 100 ng/ml of alpha-galactosylceramide and 10 IU/ml of IL-2 (Invitrogen, Carlsbad Calif.) for 10 to 14 days. After stimulating the CD161^+ cells a second time with alpha-galactosylceramide-pulsed, irradiated immature dendritic cells, NKT cell lines were shown by flow cytometry to express both CD161^+ and V 24i TCR (99% purity).
IFN-γ and IL-4 secretion by the Vα 24i human NKT cell line was determined by ELISA (BD Pharmingen, San Diego, Calif.) after culture for 16 hours. […]
as §1, with “of 100-0.1” for “of 100”
IFN-γ secretion by the Vα 24i human NKT cell line was determined by ELISA (BD Pharmingen, San Diego, Calif.) after culture for 16 hours. […]

[2] = system: CD1d reactive T cell hybridomas with an invariant Vα14i T cell antigen receptor α chain; experiment: 1.2 Hybridoma assay (IL-2 release by ELISA); assay type: cell-based, Mouse; details: for IL-2 secretion: CD1d coated plates, FIG. 8b; for IL-2 release / IL-2 production: various concentrations, FIG. 13
Procedure: As a measure of T cell activation, IL-2 release into the tissue culture medium was measured after 16 hours culture by an ELISA assay.
As a measure of T cell activation, IL-2 and IFN-γ release into the tissue culture medium was measured after 16 hours culture by an ELISA assay.

Which “reactivity of human Vα24i NKT cells” value [1] does the source give for `CCCCCCCCCCCCCCC[C@@H](O)[C@H](COC1OC(C(=O)O)C(O)C(O)C1O)NC(=O)CCCCCCCCCCCCC` (some centres unmarked) [Compound 5] here?
The value was “conserved”.

With `CCCCCCCCCCCCCCC[C@@H](O)[C@H](COC1OC(C(=O)O)C(O)C(O)C1O)NC(=O)[C@@H](O)CCCCCCCCCCCC` (some centres unmarked) [Compound 6] as the compound, how does the “reactivity of human Vα24i NKT cells” value [1] read?
Its value is “conserved”.

`CCCCCCCCCCCCCCC[C@@H](O)[C@H](COC1OC(CO)C(O)C(O)C1O)NC(=O)CCCCCCCCCCCCC` (some centres unmarked) [Compound 7] was tested. Which IL-2 secretion [2] did it give?
The IL-2 secretion was “greater IL-2 secretion when compared to the galacturonic acid derivatives”.

For `CCCCCCCCCCCCCCC[C@@H](O)[C@H](COC1OC(CO)C(O)C(O)C1O)NC(=O)[C@@H](O)CCCCCCCCCCCC` (some centres unmarked) [Compound 8], which IL-2 secretion [2] is on record?
Its IL-2 secretion is “less able to activate IL-2 secretion when compared with 5”.

`CCCCCCCCCCCCCC[C@@H](O)[C@@H](O)[C@H](COC1OC(CO)C(O)C(O)C1O)NC(=O)CCCCCc1ccccc1` (some centres unmarked) [Compound 83] was tested. Which “IL-2 release / IL-2 production” value ([2]; CD1d transfected A20 cells) did it give?
Its value is “significant increase of IL-2 production”.

With `CCCCCCCCCCCCCC[C@@H](O)[C@@H](O)[C@H](COC1OC(CO)C(O)C(O)C1O)NC(=O)CCCCCCCc1ccccc1` (some centres unmarked) [Compound 84] as the compound, how does the “IL-2 release / IL-2 production” value ([2]; CD1d transfected A20 cells) read?
Its value is “significant increase of IL-2 production”.

And the interferon-γ secretion ([1]; 100-0.1 ng/mL, FIGS. 17 and 18)?
The interferon-γ secretion was “consistently stimulating greater IFN-γ secretion”.

Which results are given for `CCCCCCCCCCCCCCCCCCCCCCCCCC(=O)N[C@@H](CO[C@H]1O[C@H](CO)[C@H](O)[C@H](O)[C@H]1O)[C@H](O)[C@H](O)CCCCCCCCCCCCCC` [α-GalCer, α-Galactosylceramide, reference compound]?
IL-2 release from the hybridomas ([2]; 1 μg/ml, CD1d transfected A20 cells, FIG. 12): greatest amount of IL-2 release; IL-2 secretion [2]: greater IL-2 secretion when compared to the galacturonic acid derivatives; IL-4 secretion ([1]; 10 μg/ml glycolipid (1-10 μg/ml for 3-O-sulfo-α-galactosylceramide), 10 IU/ml IL-2): greater IFN-γ and IL-4 secretion; IFN-γ secretion ([1]; 10 μg/ml glycolipid (1-10 μg/ml for 3-O-sulfo-α-galactosylceramide), 10 IU/ml IL-2, FIG. 9a): greater IFN-γ and IL-4 secretion
